Where two headings read alike, the source gives them in different places.
How the values were obtained:
[1] = test system: vacuolar membrane vesicles purified from Arabidopsis leaf / root; conditions: cited from earlier work
[2] = test system: vacuolar membrane vesicles purified from DTY167 cells (ycf1Δ mutant); format: biochemical, Saccharomyces cerevisiae
Summary of the method: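 ATP-dependent [3H]DNP-GS (66.2 μM) transport measured by filtration and scintillation counting of Ficoll-purified yeast vacuolar vesicles (DTY165 wild type; DTY167 ycf1Δ), 1–60 min at 25 °C in sorbitol/Tris-Mes pH 8.0 with 3 mM ATP, 3 mM MgSO4 and gramicidin-D. Nonenergized uptake without ATP/Mg2+.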

[3] = test system: vacuolar GS-X pump (vacuolar membrane vesicles, Z. mays roots); conditions: Zea mays root; cited from earlier work
[4] = test system: vacuolar GS-X pump (vacuolar membrane vesicles, V. radiata hypocotyls); experiment: GS-conjugate uptake by vacuolar membrane vesicles from etiolated hypocotyls of V. radiata; format: biochemical, Vigna radiata
[5] = test system: vacuolar GS-X pump (vacuolar membrane vesicles, V. radiata hypocotyls); conditions: cited from earlier work

Compound: N[C@@H](CCC(=O)N[C@@H](CSc1ccc([N+](=O)[O-])cc1[N+](=O)[O-])C(=O)NCC(=O)O)C(=O)O [DNP-GS, S-(2,4-dinitrophenyl)glutathione]
- rate of MgATP-dependent, uncoupler-insensitive DNP-GS uptake ([1]; Arabidopsis leaf): 2.3 nmol/mg/20 minutes
- rate of MgATP-dependent, uncoupler-insensitive DNP-GS uptake ([1]; Arabidopsis root): 3.8 nmol/mg/20 minutes
- initial rate of DNP-GS uptake ([2]; 3 mM MgATP, 66.2 μM DNP-GS): 1.7 nmol/mg/min
- DNP-GS uptake, control ([2]; Table 1: 66.2 μM DNP-GS, 3 mM MgATP, no addition): 15.4 ± 0.4 nmol/mg/10 minutes
- MgATP-dependent, uncoupler-insensitive DNP-GS uptake, control ([2]; Table 2: 5 μM gramicidin D, no compound): 6.5 ± 0.8 nmol/mg/10 minutes
- rate of MgATP-dependent, uncoupler-insensitive DNP-GS uptake [3]: 2.1 nmol/mg/20 minutes
- IC50 ([4]; V. radiata, read-out: I50 for uptake of C3G-GS): 104 µM
- IC50 ([4]; read-out: I50 for uptake of IAA-GS): 124 µM
- inhibition of MgATP-dependent [3H]medicarpin-GS uptake ([4]; vanadate 10 μM, DNP-GS 100 μM, gramicidin D): more than 85%
- rate of MgATP-dependent, uncoupler-insensitive DNP-GS uptake ([5]; Vigna radiata hypocotyl): 5.8 nmol/mg/20 minutes
- Km estimated previously in this system [5]: 80 µM
- Vmax of GS-X pump ([5]; comparison value for DNP-GS): 12 nmol/mg/20 minutes
